34 compounds from patent US20160045505A1, “COMPOUNDS AND COMPOSITIONS FOR THE TREATMENT OF PARASITIC DISEASES” (NOVARTIS AG, priority 2013, published 2016) can be followed below.

Molecules are shown by their SMILES. Like-named read-outs stand apart in the source and are kept apart here.

Assay [1] concerns Leishmania donovani axenic amastigote parasites. The experiment in a line: Leishmania donovani axenic amastigote proliferation assay (Cell TiterGlo luminescence, 2 day incubation). The format is cell-based. The following applies: read-out: L. donovani amastigotes EC50. (In general: Cellular ATP, detected with luciferase, serves as a proxy for viable cell number.)
Assay [2] has as its system L. donovani HU3 strain in mouse peritoneal macrophages. Kind of assay: Assay for proliferation of Leishmania parasites in infected mouse peritoneal macrophages (SybrGreen staining, high-content imaging, 5 days). To be noted: L. donovani in mouse peritoneal macrophages, read-out: L. donovani Macrophage EC50. The format is cell-based, Leishmania donovani.
Assay [3] has as its system Trypanosoma brucei Lister 427 strain, bloodstream form. The experiment in a line: Assay for proliferation of kinetoplastid parasite Trypanosoma brucei (Cell Titer Glo, 48 hours). The assay is classed as cell-based. To be noted: T. brucei Lister 427 bloodstream form, read-out: T. brucei EC50. The source says:
Assay for Proliferation of Kinetoplastid Parasite Trypanosoma brucei.
The proliferation is quantified by the addition of Cell Titer Glo (Promega®) a luminescent cell viability assay that measures the number of viable cells in culture based on the quantification of cellular ATP amount, which is an indicator of metabolically active cells.
The following assay illustrates the invention without in any way limiting the scope of the invention. This parasite proliferation assay measures the increase in parasite growth using an assay that measures ATP activity, Cell Titer Glo®.
Trypanosoma brucei Lister 427 strain is grown in HMI-9 Trypanosome media for T. brucei bloodstream form. 30 μl of HMI-9 media is dispensed into 384 well assay plates. 200 nl of compounds of the invention (in DMSO), including anti-trypanosome controls (Pentamidine and suramin), are then transferred into the assay plates, as well as DMSO alone to serve as a negative control for inhibition. Then 25 μl of a suspension of T. brucei culture in HMI-9 media is dispensed into the assay plates. The final concentration of parasites in culture corresponds to 1.7% of 0.5 uM ATP activity with Cell Titer Glo® in HMI-9 media. The plates are placed in a 37° C. incubator for 48 hours in an atmospheric environment containing 5% CO2. 40 μl of Cell Titer Glo® is dispensed into the plates. The plates are then read for luminescence. The percentage inhibition of 50%, EC50, is calculated for each compound.

Setting [4] is: Leishmania donovani, axenic amastigotes, inhibition of proliferation.
Where [5] appears, read: Leishmania donovani, Peritoneal macrophage, inhibition of proliferation.
[6] abbreviates: Trypanosoma brucei, inhibition of proliferation.
The mark [7] stands for this setting: Leishmania donovani, L. donovani axenic amastigotes.
Where [8] appears, read: Leishmania donovani, Peritoneal macrophage.

With `CC(C)OC(=O)Nc1cnc2nc(-c3cccc(NC(=O)c4nccs4)c3)cn2c1` [Compound 11], the values for the EC50 in assay [1] (setting [4]), in assay [2] (setting [5]) and in assay [3] (setting [6]) were 3800 nM, 5000 nM and 659 nM, respectively.
The like results for `Cc1ccc(C(=O)Nc2cccc(-c3cn4cc(NC(=O)OC(C)C)cnc4n3)c2)o1` [Compound 13] were, in that order, 1720 nM, 810 nM and 181 nM.
Turning to `CCN(CC)C(=O)Nc1cccc(-c2cn3cc(NC(=O)OC(C)C)cnc3n2)c1` [Compound 16], the values for the EC50 in assay [1] (setting [4]), in assay [2] (setting [5]) and in assay [3] (setting [6]) were > 25000 nM, 14000 nM and 1640 nM, respectively.
As to `CC(C)OC(=O)Nc1cnc2nc(-c3cccc(NC(=O)c4ccc(Cl)o4)c3)cn2c1` [Compound 18], the EC50 (in general, the concentration at which the effect is half-maximal) in assay [1] (setting [4]) was determined as 410 nM; in assay [2] (setting [5]), 172 nM; in assay [3] (setting [6]), 56.8 nM.
On the same counts, the results for `CC(C)OC(=O)Nc1cnc2nc(-c3cccc(NC(=O)N(C)C)c3)cn2c1` [Compound 20] are 13400 nM, 7900 nM and 2000 nM.
The like results for `CC(C)OC(=O)Nc1cccc(-c2cn3cc(NC(=O)OC(C)C)cnc3n2)c1` [Compound 21] were, in that order, 1970 nM, 1050 nM and 187 nM.
As to `Cc1nc(C)c(C(=O)Nc2cccc(-c3cn4cc(NC(=O)OC(C)C)cnc4n3)c2)o1` [Compound 22], the EC50 amounted to 1240 nM in assay [1] (setting [4]), 530 nM in assay [2] (setting [5]) and 384 nM in assay [3] (setting [6]).
The like results for `COC(=O)Nc1ccc(-c2cnc3nc(-c4cc(NC(=O)N5CCCC5)ccc4Cl)cn3c2)cc1` [Compound 24, methyl (4-(2-(2-chloro-5-(pyrrolidine-1-carboxamido)phenyl)imidazo[1,2-a]pyrimidin-6-yl)phenyl)carbamate] were, in that order, 19.9 nM, 57 nM and 8.45 nM.
On the same counts, the results for `O=C(Nc1ccc(Cl)c(-c2cn3cc(-c4ccc(F)cc4)cnc3n2)c1)N1CCCC1` [Compound 25] are 54 nM, 100 nM and 27.5 nM.
On to `CNc1ccc(-c2cnc3nc(-c4cc(NC(=O)N5CCCC5)ccc4Cl)cn3c2)cc1` [Compound 26, N-(4-chloro-3-(6-(4-(methylamino)phenyl)imidazo[1,2-a]pyrimidin-2-yl)phenyl)pyrrolidine-1-carboxamide], for which the EC50 in assay [1] (setting [4]) worked out at 57 nM; in assay [2] (setting [5]), 104 nM; in assay [3] (setting [6]) it was 23.3 nM.
Consider `COC(=O)Nc1ccc(-c2cnc3nc(-c4cc(NC(=O)c5ccc(C)o5)ccc4Cl)cn3c2)cc1` [Compound 27, methyl (4-(2-(2-chloro-5-(5-methylfuran-2-carboxamido)phenyl)imidazo[1,2-a]pyrimidin-6-yl)phenyl)carbamate], for which the EC50 came to 35 nM in assay [1] (setting [4]), 110 nM in assay [2] (setting [5]) and 589 nM in assay [3] (setting [6]).
The like results for `O=C(Nc1ccc(Cl)c(-c2cn3cc(-c4ccsc4)cnc3n2)c1)N1CCCC1` [Compound 28] were, in that order, 28 nM, 129 nM and 9.36 nM.
For `Cc1ccc(C(=O)Nc2ccc(Cl)c(-c3cn4cc(-c5ccsc5)cnc4n3)c2)o1` [Compound 30], the EC50 is 101 nM in assay [1] (setting [4]), 172 nM in assay [2] (setting [5]) and 86.8 nM in assay [3] (setting [6]).
On the same counts, the results for `Cc1ccc(C(=O)Nc2ccc(Cl)c(-c3cn4cc(-c5ccccc5)cnc4n3)c2)o1` [Compound 31, N-(4-chloro-3-(6-phenylimidazo[1,2-a]pyrimidin-2-yl)phenyl)-5-methylfuran-2-carboxamide] are 169 nM, 243 nM and 67.7 nM.
Turning to `COCCOC(=O)Nc1ccc(Cl)c(-c2cn3cc(-c4ccc(NC(=O)OC)cc4)cnc3n2)c1` [Compound 32, 2-methoxyethyl N-[4-chloro-3-(6-{4-[(methoxycarbonyl)amino]phenyl}imidazo[1,2-a]pyrimidin-2-yl)phenyl]carbamate], the figures for the EC50 in assay [1] (setting [4]), in assay [2] (setting [5]) and in assay [3] (setting [6]) were 118 nM, 330 nM and 186 nM, respectively.
With `CNc1ccc(-c2cnc3nc(-c4cc(NC(=O)c5ccc(C)o5)ccc4Cl)cn3c2)cc1` [Compound 33, N-(4-chloro-3-(6-(4-(methylamino)phenyl)imidazo[1,2-a]pyrimidin-2-yl)phenyl)-5-methylfuran-2-carboxamide], the EC50 in assay [1] (setting [4]) came out at 370 nM; in assay [2] (setting [5]), 660 nM; in assay [3] (setting [6]) it was 188 nM.
Take `COCCOC(=O)Nc1ccc(Cl)c(-c2cn3cc(-c4ccsc4)cnc3n2)c1` [Compound 34]: the EC50 is 258 nM in assay [1] (setting [4]), 750 nM in assay [2] (setting [5]) and 492 nM in assay [3] (setting [6]).
On the same counts, the results for `COCCOC(=O)Nc1ccc(Cl)c(-c2cn3cc(-c4ccccc4)cnc3n2)c1` [Compound 35] are 730 nM, 870 nM and 1120 nM.
On to `CCOC(=O)Nc1ccc(Cl)c(-c2cn3cc(-c4ccc(NC)cc4)cnc3n2)c1` [Compound 37], for which the EC50 in assay [1] (setting [4]) worked out at 610 nM; in assay [2] (setting [5]), 3010 nM; in assay [3] (setting [6]), 197 nM.
On the same counts, the results for `O=C(Nc1ccc(Cl)c(-c2cn3cc(Cl)cnc3n2)c1)c1ccco1` [Compound 38] are 5900 nM, 15600 nM and 1800 nM.
On the same counts, the results for `O=C(Nc1ccc(Cl)c(-c2nc3ncc(-c4ccccc4)cn3c2F)c1)N1CCCC1` [Compound 39] are > 3400 nM, 180 nM and 74.5 nM.
Regarding `CC(C)OC(=O)Nc1cnc2nc(-c3cc(NC(=O)c4cncn4C)ccc3F)cn2c1` [Compound 96], the EC50 is > 15800 nM in assay [1] (setting [4]), 42200 nM in assay [2] (setting [5]) and 1480 nM in assay [3] (setting [6]).
For `CON(C)C(=O)Nc1cccc(-c2cn3cc(NC(=O)OC(C)C)cnc3n2)c1` [Compound 215], the EC50 came to 533 nM in assay [1] (axenic amastigotes, inhibition of proliferation); 1320 nM in assay [2] (inhibition of proliferation); 181 nM in assay [3] (inhibition of proliferation).
`CON(C)C(=O)Nc1ccc(F)c(-c2cn3cc(NC(=O)OC(C)C)cnc3n2)c1` [Compound 221]: the EC50 in assay [1] (setting [4]) is 249 nM; in assay [2] (setting [5]), 1060 nM; in assay [3] (setting [6]) it was 177 nM.
On to `CC(C)OC(=O)Nc1cnc2nc(-c3cc(NC(=O)N4CCC4)ccc3F)cn2c1` [Compound 226], for which the EC50 in assay [1] (setting [4]) stood at 42 nM; in assay [2] (setting [5]), 384 nM; in assay [3] (setting [6]) it was 37 nM.
With `CC(C)OC(=O)Nc1cnc2nc(-c3cc(NC(=O)N4CC(O)C4)ccc3F)cn2c1` [Compound 288], the figures for the EC50 in assay [1] (setting [4]), in assay [2] (setting [5]) and in assay [3] (setting [6]) were 7690 nM, > 50000 nM and 33800 nM, respectively.
As for `CC(C)OC(=O)Nc1cnc2nc(-c3cc(NC(=O)N4CC(C#N)C4)ccc3F)cn2c1` [Compound 290], the EC50 in assay [1] (setting [4]) was 3140 nM; in assay [2] (setting [5]) it was > 45700 nM; in assay [3] (setting [6]), 12600 nM.
For the compound `CC(C)OC(=O)Nc1cnc2nc(-c3cc(NC(=O)N4CC(Cl)C4)ccc3F)cn2c1` [Compound 291], the EC50 in assay [1] (setting [4]) was determined as 390 nM; in assay [2] (setting [5]) it was 968 nM; in assay [3] (setting [6]), 206 nM.
For `CS(=O)(=O)Nc1ccc(F)c(-c2cn3cc(Br)cnc3n2)c1` [Compound 316, N-(3-(6-bromoimidazo[1,2-a]pyrimidin-2-yl)-4-Fluorophenyl)methanesulfonamide], the EC50 was > 25000 nM in assay [1] (setting [4]), > 50000 nM in assay [2] (setting [5]) and > 50000 nM in assay [3] (setting [6]).
With `Cc1nc(C)c(C(=O)Nc2ccc(F)c(-c3cn4cc(C5CC5)cnc4n3)c2)o1` [Compound 339, N-(3-(6-cyclopropylimidazo[1,2-a]pyrimidin-2-yl)-4-fluorophenyl)-2,4-dimethyloxazole-5-carboxamide], the EC50 in assay [1] (setting [4]) stood at 85 nM; in assay [2] (setting [5]), 272 nM; in assay [3] (setting [6]) it was 80 nM.
In the case of `Cc1nc(C)c(C(=O)Nc2ccc(F)c(-c3cn4cc(-c5ccc(CCO)cn5)cnc4n3)c2)o1` [Compound 350], the EC50 amounted to 16 nM in assay [1] (setting [4]), 128 nM in assay [2] (setting [5]) and 53 nM in assay [3] (setting [6]).
The like results for `Cc1nc(C)c(C(=O)Nc2ccc(F)c(-c3cn4cc(-c5sc(C)nc5C)cnc4n3)c2)o1` [Compound 365] were, in that order, 102 nM, 200 nM and 59 nM.
On to `Cc1cccnc1-c1cnc2nc(-c3cc(NC(=O)N4CC(F)(F)C4)ccc3F)cn2c1` [Compound 403], for which the EC50 stood at 63 nM in assay [1] (setting [7]), 181 nM in assay [2] (setting [8]) and 55 nM in assay [3] (Trypanosoma brucei).
On the same counts, the results for `Cc1cccnc1-c1cnc2nc(-c3cc(NC(=O)N4CC[C@@H](F)C4)ccc3F)cn2c1` [Compound 410] are 22 nM, 65 nM and 17 nM.
